Here are results for 16 compounds from patent publication US7427625B2, “Substituted thiatriazaacenaphthylene-6-carbonitrile kinase inhibitors” (Janssen Pharmaceutica, N.V., priority 2006, dated 2008).

As a reminder, the inhibition is the drop in the measured response relative to a control, in per cent. Broadly, the IC50 is the point on the concentration scale where inhibition reaches its midpoint.

In one test the target is T1, EGFR (Homo sapiens, UniProt P00533).
T1 construct: The intracellular portion of EGFR started at nucleotide 2189 (corresponding to amino acid 667) and ended at the termination codon; made in house; host or cells: Sf9 insect cells (baculovirus)
T1 sequence (P00533 669-1210 limits assumed): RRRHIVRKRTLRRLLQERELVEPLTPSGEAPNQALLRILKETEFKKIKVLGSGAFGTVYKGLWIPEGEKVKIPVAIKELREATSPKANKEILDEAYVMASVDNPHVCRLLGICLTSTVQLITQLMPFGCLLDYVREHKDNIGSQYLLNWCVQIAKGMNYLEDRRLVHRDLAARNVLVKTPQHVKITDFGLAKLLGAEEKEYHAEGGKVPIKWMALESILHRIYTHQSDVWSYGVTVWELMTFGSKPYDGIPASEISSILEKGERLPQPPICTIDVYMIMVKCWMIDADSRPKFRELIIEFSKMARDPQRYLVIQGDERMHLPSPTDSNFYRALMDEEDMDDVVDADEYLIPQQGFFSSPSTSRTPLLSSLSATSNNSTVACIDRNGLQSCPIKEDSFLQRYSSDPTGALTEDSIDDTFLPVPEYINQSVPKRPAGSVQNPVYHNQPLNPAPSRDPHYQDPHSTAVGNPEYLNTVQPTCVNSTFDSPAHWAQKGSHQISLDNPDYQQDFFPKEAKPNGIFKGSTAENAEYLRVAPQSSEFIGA
Nature of the test: EGFR Kinase Assay. To be noted: for inhibition at 2 µM: test concentration of 2 μM, read-out: EGFR percent inhibition. In kind it is biochemical. The procedure, abridged:
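GST-fused EGFR intracellular domain (aa 667 to end), Sf9-expressed, phosphorylating biotinylated polyGluTyr with 5 μM ATP plus γ-33P ATP in Tris pH 8.0, MgCl2, vanadate, 1 mM DTT; 1 h, 30 °C, streptavidin Flashplate scintillation read. Triplicate 16-point half-log series from 200 uM; IC50 from % inhibition vs log concentration, else % inhibition at 2 μM.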

The next test concerns the target T2, Lyn kinase (Homo sapiens, UniProt P07948).
T2 construct: purchased Upstate Biotechnology, Lake Placid, N.Y
Nature of the test: Lyn Kinase Assay. Type of test: biochemical. To be noted: for inhibition at 2 µM: test concentration of 2 μM, read-out: Lyn percent inhibition. The procedure: A mixture of a 10× kinase buffer (500 mM MOPS at pH 7.5, 1 mM EGTA, 1 mM Sodium Vanadate, 1% β-mercaptoethanol and 100 mM Magnesium Acetate), ATP (5 μM final from a 10 mM stock), polyGluTyr (0.1 mg/mL final from a 1 mg/mL stock), γ-^33P ATP (10 μCi/μL stock) and water (20 μL/well) was added to each well of a Streptavidin Flashplate.
Test compound in 100% DMSO (0.5 μL) was added to the appropriate wells. Diluted Lyn kinase (human) (Upstate Biotechnology, Lake Placid, N.Y.) (diluted in a buffer consisting of 50 mM Tris at pH 7.5, 0.1 mM EGTA, Sodium Vanadate (0.1 mM), β-mercaptoethanol (0.1%) and 1 mg/mL bovine serum albumin) (2.5 μL) was added to the wells to initiate the reactions.
The reaction plates were incubated at 30° C. for 40 min. The reaction was terminated by the addition of a 3% phosphoric acid solution (5 μL). The reaction product (10 μL) was spotted onto a P30 filtermat and washed for 5 minutes in phosphoric acid (75 mM). The wash sequence was repeated two more times, followed with one final wash in methanol. The plates were then dried, sealed and read on the TopCount scintillation counter after adding 30 μL scintillation fluid.
Percent inhibition was derived according to the procedure described in Example 2. For those compounds without an IC50, the percent inhibition results are shown at a test concentration of 2 μM.

Another test has as its system A375 malignant melanoma. Nature of the test: Cell Proliferation Inhibition Assay (14C-thymidine incorporation), A375. Type of test: cell-based. As to conditions: Homo sapiens, A-375. The procedure: (§1) The ability of a test compound to inhibit unregulated cell proliferation was determined by measuring incorporation of ^14C-labelled thymidine into newly synthesized DNA within cell lines derived from carcinomas originating from several tissues. Accordingly, the anti-proliferative effect of a compound on cells with a variety of phenotypes may be determined.
(§2) Carcinoma cell lines include those such as HeLa cervical adenocarcinoma (American Type Culture Collection (ATCC), Virginia, Cat. #CCL-2), A375 malignant melanoma (ATCC CRL-1619), SK-OV-3 ovarian adenocarcinoma (ATCC HTB-77), HCT-116 colon carcinoma (CCL-247), PC-3 prostate adenocarcinoma (ATCC CRL-1435), and MDA-MB-231 (Xenogen Corp.)
(§3) The carcinoma cells were trypsinized and counted. The cells (3000-8000 count) were added to each well of a 96-well CytoStar tissue culture treated scintillating microplate (Amersham #RPNQ0160) in complete medium (100 μL) and the plate was then incubated in complete medium for 24 hrs at 37° C. in an […] atmosphere containing 5% CO2. Test compound (1 μL) in 100% DMSO was added to the plate test-wells with DMSO only added to control-wells. The plate was incubated in complete medium for a second 24 hr period at 37° C. in an atmosphere containing 5% CO2.
(§4) An aliquot of a solution of Methyl ^14C-thymidine ([…]) (NEN #NEC568 or Amersham #CFA532) and complete medium (20 uL to provide 0.2 μCi/well) was then added to each well and the plate was incubated for a third 24 hr period at 37° C. in an atmosphere containing 5% CO2. The plate contents were then discarded, the plate was washed twice with PBS (200 μL) and then PBS (200 μL) was added to each well. The plate was sealed and the degree of methyl ^14C-thymidine incorporation was quantified on a Packard Top Count.
Background: Dividing cells build labelled thymidine or BrdU into new DNA.

For the next test, the system named is HCT-116 colon carcinoma. The experiment in a line: Cell Proliferation Inhibition Assay (14C-thymidine incorporation), HCT116. In kind it is cell-based. To be noted: Homo sapiens. The procedure:
as §1, §2, §3, §4

Test [1] deals with HeLa cervical adenocarcinoma. The experiment in a line: Cell Proliferation Inhibition Assay (14C-thymidine incorporation), HeLa. As to conditions: Homo sapiens. In kind it is cell-based. The procedure:
as §1, §2, §3, §4

T2 sequence (P07948 whole entry): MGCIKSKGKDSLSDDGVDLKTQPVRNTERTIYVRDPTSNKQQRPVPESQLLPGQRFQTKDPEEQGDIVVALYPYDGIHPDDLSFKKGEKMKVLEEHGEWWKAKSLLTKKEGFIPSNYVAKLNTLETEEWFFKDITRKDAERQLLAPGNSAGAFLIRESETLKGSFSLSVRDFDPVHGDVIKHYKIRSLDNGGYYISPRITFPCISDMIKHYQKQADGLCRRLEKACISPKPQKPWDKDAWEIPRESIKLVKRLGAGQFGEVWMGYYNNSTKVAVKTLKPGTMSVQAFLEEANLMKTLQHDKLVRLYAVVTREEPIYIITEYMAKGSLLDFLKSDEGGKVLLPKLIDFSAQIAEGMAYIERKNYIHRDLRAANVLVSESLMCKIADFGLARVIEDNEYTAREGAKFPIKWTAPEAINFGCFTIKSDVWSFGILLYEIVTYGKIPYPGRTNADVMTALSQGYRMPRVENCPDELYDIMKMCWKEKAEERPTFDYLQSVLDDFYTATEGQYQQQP

Consider `N#Cc1cnc2sc(C(=O)Nc3ccc(CN4CCOCC4)cc3)c3c2c1N(c1c(Cl)ccc2c1OCO2)C(=O)N3` [Cpd 4, 5-(5-chloro-benzo[1,3]dioxol-4-yl)-6-cyano-4-oxo-4,5-dihydro-3H-1-thia-3,5,8-triaza-acenaphthylene-2-carboxylic acid (4-morpholin-4-ylmethyl-phenyl)-amide], for which, on EGFR, the inhibition at 2 µM is 36%. Moreover, the IC50 against Lyn kinase is 477 nM.

As to `COc1cc(N2C(=O)Nc3c(C(=O)Nc4ccc(CN5CCOCC5)cc4)sc4ncc(C#N)c2c34)c(Cl)cc1Cl` [Cpd 5, 6-cyano-5-(2,4-dichloro-5-methoxy-phenyl)-4-oxo-4,5-dihydro-3H-1-thia-3,5,8-triaza-acenaphthylene-2-carboxylic acid (4-morpholin-4-ylmethyl-phenyl)-amide], the inhibition at 2 µM amounted to 1% at EGFR and 83% at Lyn kinase.

Regarding `COc1cc(N2C(=O)Nc3c(C(=O)Nc4ccc(CCN5CCOCC5)cc4)sc4ncc(C#N)c2c34)c(Cl)cc1Cl` [Cpd 6, 6-cyano-5-(2,4-dichloro-5-methoxy-phenyl)-4-oxo-4,5-dihydro-3H-1-thia-3,5,8-triaza-acenaphthylene-2-carboxylic acid [4-(2-morpholin-4-yl-ethyl)-phenyl]-amide], the values for the inhibition at 2 µM at EGFR and on Lyn kinase were 7% and 75%, respectively.

Regarding `CCOC(=O)c1sc2nc(N3CCOCC3)c(C#N)c3c2c1NC(=O)N3c1c(Cl)ccc2c1OCO2` [Cpd 7, 5-(5-chloro-benzo[1,3]dioxol-4-yl)-6-cyano-7-morpholin-4-yl-4-oxo-4,5-dihydro-3H-1-thia-3,5,8-triaza-acenaphthylene-2-carboxylic acid ethyl ester], the values for the inhibition at 2 µM on EGFR and on Lyn kinase were -5% and 43%, respectively.

`N#Cc1c(N2CCOCC2)nc2sc(C(=O)Nc3ccc(CN4CCOCC4)cc3)c3c2c1N(c1c(Cl)ccc2c1OCO2)C(=O)N3` [Cpd 8, 5-(5-chloro-benzo[1,3]dioxol-4-yl)-6-cyano-7-morpholin-4-yl-4-oxo-4,5-dihydro-3H-1-thia-3,5,8-triaza-acenaphthylene-2-carboxylic acid (4-morpholin-4-ylmethyl-phenyl)-amide]: the values for the inhibition at 2 µM on EGFR and at Lyn kinase were -6% and 40%, respectively.

In the case of `Cc1nc2sc(C(=O)Nc3ccc(CN4CCOCC4)cc3)c3c2c(c1C#N)N(c1c(Cl)ccc2c1OCO2)C(=O)N3` [Cpd 9, 5-(5-chloro-benzo[1,3]dioxol-4-yl)-6-cyano-7-methyl-4-oxo-4,5-dihydro-3H-1-thia-3,5,8-triaza-acenaphthylene-2-carboxylic acid (4-morpholin-4-ylmethyl-phenyl)-amide], the inhibition at 2 µM on EGFR was determined as 14%; on Lyn kinase, 58%.

For the compound `CN1CCC(NC(=O)c2sc3ncc(C#N)c4c3c2NC(=O)N4c2c(Cl)ccc3c2OCO3)CC1` [Cpd 10, 5-(5-chloro-benzo[1,3]dioxol-4-yl)-6-cyano-4-oxo-4,5-dihydro-3H-1-thia-3,5,8-triaza-acenaphthylene-2-carboxylic acid (1-methyl-piperidin-4-yl)-amide], the IC50 is 3960 nM at EGFR and 268 nM on Lyn kinase.

On to `N#Cc1cnc2sc(C(=O)Nc3ccc(CCN4CCCCC4)cc3)c3c2c1N(c1c(Cl)ccc2c1OCO2)C(=O)N3` [Cpd 11, 5-(5-chloro-benzo[1,3]dioxol-4-yl)-6-cyano-4-oxo-4,5-dihydro-3H-1-thia-3,5,8-triaza-acenaphthylene-2-carboxylic acid [4-(2-piperidin-1-yl-ethyl)-phenyl]-amide], for which the IC50 against EGFR came out at 1600 nM; on Lyn kinase it was 113 nM.

At EGFR, `CN1CCN(CCc2ccc(NC(=O)c3sc4ncc(C#N)c5c4c3NC(=O)N5c3c(Cl)ccc4c3OCO4)cc2)CC1` [Cpd 12, 5-(5-chloro-benzo[1,3]dioxol-4-yl)-6-cyano-4-oxo-4,5-dihydro-3H-1-thia-3,5,8-triaza-acenaphthylene-2-carboxylic acid {4-[2-(4-methyl-piperazin-1-yl)-ethyl]-phenyl}-amide] had an IC50 of 2700 nM. Besides, the inhibition at 2 µM at Lyn kinase is 93%.

For `N#Cc1cnc2sc(C(=O)Nc3ccc(CCN4CCOCC4)cc3)c3c2c1N(c1c(Cl)ccc2c1OCO2)C(=O)N3` [Cpd 13, 5-(5-chloro-benzo[1,3]dioxol-4-yl)-6-cyano-4-oxo-4,5-dihydro-3H-1-thia-3,5,8-triaza-acenaphthylene-2-carboxylic acid [4-(2-morpholin-4-yl-ethyl)-phenyl]-amide], the inhibition at 2 µM at EGFR amounted to 23%; at Lyn kinase, 76%.

`CCOC(=O)c1sc2nc(O)c(C#N)c3c2c1NC(=O)N3c1ccncc1` [Cpd 14, 6-cyano-7-hydroxy-4-oxo-5-pyridin-4-yl-4,5-dihydro-3H-1-thia-3,5,8-triaza-acenaphthylene-2-carboxylic acid ethyl ester]: the inhibition at 2 µM on EGFR is -9%.

For `CCOC(=O)c1sc2nc(-c3cc(F)ccc3Cl)c(C#N)c3c2c1NC(=O)N3c1ccncc1` [Cpd 15, 7-(2-chloro-5-fluoro-phenyl)-6-cyano-4-oxo-5-pyridin-4-yl-4,5-dihydro-3H-1-thia-3,5,8-triaza-acenaphthylene-2-carboxylic acid ethyl ester], the inhibition at 2 µM on EGFR was 6%.

Consider `COC1CCN(Cc2ccc(NC(=O)c3sc4ncc(C#N)c5c4c3NC(=O)N5c3c(Cl)ccc4c3OCO4)cc2)CC1` [Cpd 18, 5-(5-chloro-benzo[1,3]dioxol-4-yl)-6-cyano-4-oxo-4,5-dihydro-3H-1-thia-3,5,8-triaza-acenaphthylene-2-carboxylic acid [4-(4-methoxy-piperidin-1-ylmethyl)-phenyl]-amide], for which the inhibition at 2 µM at EGFR came to 38%; at Lyn kinase, 86%.

In turn, `CC1CCN(Cc2ccc(NC(=O)c3sc4ncc(C#N)c5c4c3NC(=O)N5c3c(Cl)ccc4c3OCO4)cc2)CC1` [Cpd 19, 5-(5-chloro-benzo[1,3]dioxol-4-yl)-6-cyano-4-oxo-4,5-dihydro-3H-1-thia-3,5,8-triaza-acenaphthylene-2-carboxylic acid [4-(4-methyl-piperidin-1-ylmethyl)-phenyl]-amide] yielded an IC50 against EGFR of 624 nM.

Regarding `CN(C)C1CCN(C(=O)c2sc3ncc(C#N)c4c3c2NC(=O)N4c2c(Cl)ccc3c2OCO3)CC1` [Cpd 41, 5-(5-chloro-benzo[1,3]dioxol-4-yl)-2-(4-dimethylamino-piperidine-1-carbonyl)-4-oxo-4,5-dihydro-3H-1-thia-3,5,8-triaza-acenaphthylene-6-carbonitrile], the inhibition at 2 µM at EGFR came to 7%. For the same compound, the IC50 with A375 malignant melanoma was > 100000 nM; in the test on HCT-116 colon carcinoma, > 10000 nM; in test [1], > 100000 nM.

Take `CN(C)C1CCN(Cc2ccc(NC(=O)c3sc4ncc(C#N)c5c4c3NC(=O)N5c3c(Cl)ccc4c3OCO4)cc2)CC1` [Cpd 42, 5-(5-chloro-benzo[1,3]dioxol-4-yl)-6-cyano-4-oxo-4,5-dihydro-3H-1-thia-3,5,8-triaza-acenaphthylene-2-carboxylic acid [4-(4-dimethylamino-piperidin-1-ylmethyl)-phenyl]-amide]: the IC50 at EGFR is 850 nM; with A375 malignant melanoma it was > 100000 nM; in the test on HCT-116 colon carcinoma it was > 100000 nM; in test [1] it was > 100000 nM.
